Laboratory results taken from paper PMC9793460, “Food effect risk assessment in preformulation stage using material sparing μFLUX methodology” (ADMET & DMPK, 2022).
Structures can show the parent of a compound that is named as a salt. Where two headings read alike, the source gives them in different places. Marks after values point to notes of the source that are not given here.

What was measured:
[1] = cited from earlier work; for FE (food effect observed in clinic): assigned from AUC and Cmax ratios of published clinical data; for Observed AUC Ratio (Fed/Fasted) / Observed Cmax Ratio (Fed/Fasted): ratio of geometric means fed/fasted, published clinical data
[2] = μFLUX dissolution/flux test, FaSSIF or FeSSIF donor, acceptor sink buffer receiver; type: in vitro ADME; conditions: for Flux Fa (±SD; n=3) / Flux Fe (±SD; n=3): unformulated powder, initial flux excluding lag time, 37 °C; for Flux Ratios (Fed/Fasted): FeSSIF/FaSSIF; for Food effect indicated by flux ratio: prediction from FeSSIF/FaSSIF flux ratio
Procedure: Dissolution/flux tests were performed using a μFLUX apparatus (Pion Inc., Billerica, MA, USA) with 4 side-by-side donor-receiver chambers separated by a lipophilic barrier. Prior to the assay, the artificial GIT-mimicking membrane was prepared by impregnating a PVDF filter support material (polyvinylidenfluoride, 1.54 cm^2 open area, 0.45 μm pore size, 120 μm thickness, 70 % nominal porosity) with 25 μL of 20 % lecithin in dodecane lipid solution (GIT Lipid, Pion Inc., Billerica, MA, USA). The donor chambers were then filled with 20 ml of biorelevant media (FaSSIF or FeSSIF) while the receiver compartments were filled with 20 ml of acceptor sink buffer (ASB, Pion Inc., Billerica, MA, USA). The ASB is a HEPES (4-(2-hydroxyethyl)-1-piperazineethanesulfonic acid) based pH 7.4 buffer containing chemical scavengers (surfactants micelles) that allow to maintain sink conditions during the experiments. The composition of the membrane and the receiver solution are identical to the Double-Sink PAMPA model, a non-cell-based method predicting of passive transcellular intestinal absorption. The temperature in both chambers was maintained at 37 °C and the media were stirred at 100 rpm.
Model compounds were added at the start of the experiment in the donor chambers as unformulated powder at a solid load equivalent to the lowest marketed dose normalized to 250 mL stomach volume. In some cases, to counter for experimental limitation due to low signal detection or high turbidity, a higher or lower dose was selected.
Standards for each model compound were prepared by sequential addition of a stock solution of pure API pre-dissolved in organic solvents (either methanol or DMSO) to the corresponding medium. The area under the 2nd derivative spectra curves was used to calculate the concentrations. The wavelength range was selected individually for each compound in the way to avoid sensitivity issues. […] The drug concentration in the donor and receiver chambers was calculated from the UV absorbance of the samples using the corresponding standard curve. For samples with low permeability, an additional μFLUX donor-receiver pair containing described reagents except API was included in parallels and used as a corrective “blank” at the corresponding time point to ensure that the UV signal of API could be differentiated from the spectral noise of the biorelevant media. Concentration-time profiles were monitored over at least 180 min, in triplicate for each drug unless otherwise mentioned.
The flux (J) across the membrane representing the amount (m) of material crossing one unit area (A) of the membrane per unit time (t), was calculated from the concentration-time profiles in the receiver compartments:
A is the area of the membrane (1.54 cm^2), V is the volume of the receiver compartment (20 mL) and dc/dt (μg mL^-1 min^-1) is the slope of the concentration time profile of the drug in the receiver compartment.
The flux values were calculated by fitting the concentration-time profile in the receivers to a straight line to determine the slope and then normalizing the slope to the volume and surface area of the membrane following equation (1). Time intervals to calculate the flux were selected based on the apparent linearity of the concentration-time profile in the receivers, capturing the initial flux process and excluding the lag time unless otherwise is stated.

[3] = experimental; cited from earlier work
[4] = cited from earlier work; for pKa: experimental, higher pKa where two are given; for Type: ionization type
[5] = cited from earlier work; for Solubility FaSSIF (pH 6.5) / Solubility FeSSIF (pH 5.0): some values determined in the authors' lab (not marked)
[6] = Solubility in biorelevant media (FaSSIF / FeSSIF); type: physicochemical; conditions: for Solubility ratio (Fed/Fasted): FeSSIF/FaSSIF, calculated from Table 2 solubilities; for Food effect indicated by solubility ratio: prediction from FeSSIF/FaSSIF solubility ratio
Procedure: Solubility measurements were performed by adding an excess amount of drug into FaSSIF or FeSSIF media in a glass vial. […] After equilibration, samples were centrifuged/filtered using NANOSEP with 0.2 μm Bio-inert centrifugal devices (PAL Corporation). The filtrate was immediately diluted accordingly into acetonitrile/water 50/50 and analyzed by HPLC.
Model drugs categorized as BCS I - IV classes were selected. The drugs included mono- and diprotic acids and bases as well as non-ionizable compounds. […] The physicochemical properties of the model compounds, pKa, log P [18, 19] and solubility in biorelevant media [[20-26]] were collected from the literature and are depicted in Table 2.

[7] = μFLUX dissolution/flux test, FaSSIF or FeSSIF donor, acceptor sink buffer receiver; type: in vitro ADME; conditions: 0.4 mg/mL

## CNCCC(Oc1ccc(C(F)(F)F)cc1)c1ccccc1 (centres unmarked) [Fluoxetine HCl, fluoxetine hydrochloride]
[1]
  FE (food effect observed in clinic): none
[1]; listed as FXT
  FE (food effect observed in clinic): not influenced by presence or absence of food

## Cc1cn([C@H]2C[C@H](N=[N+]=[N-])[C@@H](CO)O2)c(=O)[nH]c1=O [Zidovudine, zidovudine]
[2]; FaSSIF donor
  Flux Fa (±SD; n=3): 0.037 ± 0.007
[2]; FeSSIF donor
  Flux Fe (±SD; n=3): 0.034 ± 0.002
[3]
  log P: 0.13
[4]
  pKa: 9.40 ± 0.01^a
[1]
  FE (food effect observed in clinic): negative food effect

## NS(=O)(=O)c1cc(C(=O)O)c(NCc2ccco2)cc1Cl [Furosemide, furosemide]
[2]; FaSSIF donor
  Flux Fa (±SD; n=3): 0.018 ± 0.003
[2]; FeSSIF donor
  Flux Fe (±SD; n=3): 0.208 ± 0.036
[4]; pH 5.0, species distribution curve
  fraction of drug deprotonated: ~ 97%
[1]
  FE (food effect observed in clinic): negative
[1]; listed as furosemide
  FE (food effect observed in clinic): negative food effect

## COC1=CC(=O)C[C@@H](C)[C@]12Oc1c(Cl)c(OC)cc(OC)c1C2=O [Griseofulvin]
[2]; FaSSIF donor
  Flux Fa (±SD; n=3): 0.205 ± 0.011
[2]; FeSSIF donor
  Flux Fe (±SD; n=3): 0.218 ± 0.009
[3]
  log P: 2.2
[5]
  Solubility FaSSIF (pH 6.5): 23.4 μg/mL
  Solubility FeSSIF (pH 5.0): 29.2 μg/mL
[4]
  Type: N

## CCCCc1oc2ccccc2c1C(=O)c1cc(I)c(OCCN(CC)CC)c(I)c1 [Amiodarone, Amiodarone hydrochloride]
[2]; FaSSIF donor, early flux, first 2 hours excluding lag time
  Flux Fa (±SD; n=3), early: 0.017± 0.003
[2]; FaSSIF donor, late flux, 2.5-9 hours interval
  Flux Fa (±SD; n=3), late: 0.579 ± 0.095
[2]; FeSSIF donor, early flux, first 2 hours excluding lag time
  Flux Fe (±SD; n=3), early: 0.073 ± 0.001
[2]; FeSSIF donor, late flux, 2.5-9 hours interval
  Flux Fe (±SD; n=3), late: 1.277± 0.109
[1]
  FE (food effect observed in clinic): positive food effect

## C#C[C@]1(O)CC[C@H]2[C@@H]3CCC4=Cc5oncc5C[C@]4(C)[C@H]3CC[C@@]21C [Danazol, danazol]
[4]
  Type: N

## CCc1nn(CCCN2CCN(c3cccc(Cl)c3)CC2)c(=O)n1CCOc1ccccc1 [Nefazodone HCl, nefazodone hydrochloride]
[2]; FaSSIF donor
  Flux Fa (±SD; n=3): 0.521 ± 0.179
[2]; FeSSIF donor
  Flux Fe (±SD; n=3): 1.077 ± 0.084
[2]
  Flux Ratios (Fed/Fasted): 2.07
  Food effect indicated by flux ratio: negative food effect
[5]
  Solubility FaSSIF (pH 6.5): 252 μg/mL
  Solubility FeSSIF (pH 5.0): 383 μg/mL
[6]
  Solubility ratio (Fed/Fasted): 1.52
  Food effect indicated by solubility ratio: positive food effect
[7]; FaSSIF donor, sample introduced as slurry of DS in the medium
  Flux Fa (±SD; n=3), suspension: 2.610 ± 0.618
[7]; FeSSIF donor, sample introduced as slurry of DS in the medium
  Flux Fe (±SD; n=3), suspension: 1.923 ± 0.547
[7]; FeSSIF/FaSSIF, sample introduced as slurry
  Flux Ratios (Fed/Fasted), suspension: 0.74
[1]
  FE (food effect observed in clinic): negative food effect
  Observed AUC Ratio (Fed/Fasted): 0.78
  Observed Cmax Ratio (Fed/Fasted): 0.93

## Cc1ccc(-c2cc(C(F)(F)F)nn2-c2ccc(S(N)(=O)=O)cc2)cc1 [Celecoxib, celecoxib]
[2]; FaSSIF donor
  Flux Fa (±SD; n=3): 0.186 ± 0.021
[2]; FeSSIF donor
  Flux Fe (±SD; n=3): 0.632 ± 0.077
[2]
  Flux Ratios (Fed/Fasted): 3.4
  Food effect indicated by flux ratio: positive food effect
[5]
  Solubility FeSSIF (pH 5.0): 103.3 μg/mL
[6]
  Solubility ratio (Fed/Fasted): 2.24
  Food effect indicated by solubility ratio: positive food effect
[4]
  pKa: 9.38 ± 0.08^a
[1]
  FE (food effect observed in clinic): positive
  Observed AUC Ratio (Fed/Fasted): 1.19
  Observed Cmax Ratio (Fed/Fasted): 1.29
[1]; listed as celecoxib
  FE (food effect observed in clinic): positive food effect

## NNC(=O)c1ccncc1 [Isoniazid, isoniazid]
[2]; FaSSIF donor
  Flux Fa (±SD; n=3): 0.020 ± 0
[2]; FeSSIF donor
  Flux Fe (±SD; n=3): 0.020 ± 0
[5]
  Solubility FaSSIF (pH 6.5): > 60,000 μg/mL
  Solubility FeSSIF (pH 5.0): > 60,000 μg/mL
[5]; FaSSIF
  Solubility in FaSSIF: > 60 mg/mL
[5]; FeSSIF
  Solubility in FeSSIF: > 60 mg/mL
[1]
  FE (food effect observed in clinic): negative food effect
  Observed AUC Ratio (Fed/Fasted): 0.88
  Observed Cmax Ratio (Fed/Fasted): 0.49

## COC(=O)[C@H](c1ccccc1Cl)N1CCc2sccc2C1 [Clopidogrel bisulfate, clopidogrel bisulfate]
[2]; FaSSIF donor
  Flux Fa (±SD; n=3): 1.751 ± 0.540
[2]; FeSSIF donor
  Flux Fe (±SD; n=3): 2.168 ± 0.323
[2]
  Flux Ratios (Fed/Fasted): 1.24
  Food effect indicated by flux ratio: no food effect
[5]
  Solubility FaSSIF (pH 6.5): 130 μg/mL
  Solubility FeSSIF (pH 5.0): 500 μg/mL
[6]
  Solubility ratio (Fed/Fasted): 3.85
  Food effect indicated by solubility ratio: positive food effect
[1]
  FE (food effect observed in clinic): none
  Observed AUC Ratio (Fed/Fasted): 1.02
  Observed Cmax Ratio (Fed/Fasted): 0.79
[1]; listed as clopidogrel bisulfate
  FE (food effect observed in clinic): no food effect
